The text below walks through data of PMC10756276, “Highly specific σ2R/TMEM97 ligand FEM-1689 alleviates neuropathic pain and inhibits the integrated stress response” (Proceedings of the National Academy of Sciences of the …, 2023).

One experiment concerns the target T1, 5HT1B (Homo sapiens, UniProt P28222).
T1 construct: purchased NIMH Psychoactive Drug Screening Program (PDSP), University of North Carolina at Chapel Hill
Kind of experiment: PDSP competitive binding assay. The settings on record: 10 µM test article; read-out: Ki: primary assay inhibition of radioligand binding, 5HT1B.

The target of a further experiment is 5HT1D (Homo sapiens, UniProt P28221). Put plainly: PDSP competitive binding assay. To be noted: 10 µM test article; read-out: Ki: primary assay inhibition of radioligand binding, 5HT1D.
Chain of 5HT1D (P28221 whole entry): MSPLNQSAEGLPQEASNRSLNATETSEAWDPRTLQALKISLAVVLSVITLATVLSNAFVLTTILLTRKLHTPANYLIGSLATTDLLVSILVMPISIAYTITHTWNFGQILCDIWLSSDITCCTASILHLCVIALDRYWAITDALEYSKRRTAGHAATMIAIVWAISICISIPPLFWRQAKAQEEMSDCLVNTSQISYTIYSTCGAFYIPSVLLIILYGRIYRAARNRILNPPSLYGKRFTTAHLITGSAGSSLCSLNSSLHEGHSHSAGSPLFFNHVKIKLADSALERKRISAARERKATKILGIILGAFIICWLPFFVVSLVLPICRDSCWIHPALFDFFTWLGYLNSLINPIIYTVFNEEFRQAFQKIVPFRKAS
The target of the next experiment is T2, 5HT7 (Homo sapiens, UniProt P34969).
T2 construct: purchased NIMH Psychoactive Drug Screening Program (PDSP), University of North Carolina at Chapel Hill
T2 sequence (P34969 whole entry): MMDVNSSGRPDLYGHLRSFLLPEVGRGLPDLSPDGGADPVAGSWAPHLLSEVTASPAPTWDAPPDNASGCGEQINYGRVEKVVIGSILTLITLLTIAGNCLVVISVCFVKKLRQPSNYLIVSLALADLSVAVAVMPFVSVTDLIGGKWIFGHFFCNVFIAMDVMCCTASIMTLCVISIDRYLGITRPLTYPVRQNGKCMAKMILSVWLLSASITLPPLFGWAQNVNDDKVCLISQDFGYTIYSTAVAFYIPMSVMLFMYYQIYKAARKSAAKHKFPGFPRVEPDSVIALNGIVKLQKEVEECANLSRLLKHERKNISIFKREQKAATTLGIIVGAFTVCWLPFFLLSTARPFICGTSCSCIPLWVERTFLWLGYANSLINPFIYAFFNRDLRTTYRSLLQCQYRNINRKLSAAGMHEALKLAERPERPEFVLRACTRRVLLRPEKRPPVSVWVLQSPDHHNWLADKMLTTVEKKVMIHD
Kind of experiment: PDSP competitive binding assay. The settings on record: 10 µM test article; read-out: Ki: primary assay inhibition of radioligand binding, 5HT7.

Another experiment concerns the target T3, Alpha2b (Homo sapiens, UniProt P18089).
T3 construct: purchased NIMH Psychoactive Drug Screening Program (PDSP), University of North Carolina at Chapel Hill
Kind of experiment: PDSP competitive binding assay. To be noted: 10 µM test article; read-out: Ki: primary assay inhibition of radioligand binding, Alpha2b.

The next experiment has as its target T4, PBR (Rattus norvegicus, UniProt P16257).
T4 construct: purchased NIMH Psychoactive Drug Screening Program (PDSP), University of North Carolina at Chapel Hill
Kind of experiment: PDSP competitive binding assay. To be noted: 10 µM test article; read-out: Ki: primary assay inhibition of radioligand binding, PBR.

Another experiment addresses T5, SERT (Homo sapiens, UniProt P31645).
T5 construct: purchased NIMH Psychoactive Drug Screening Program (PDSP), University of North Carolina at Chapel Hill
Put plainly: PDSP competitive binding assay. To be noted: 10 µM test article; read-out: Ki: primary assay inhibition of radioligand binding, SERT.

Another experiment concerns the target D2 (Homo sapiens, UniProt P14416). Put plainly: PDSP competitive binding assay. To be noted: 10 µM test article; read-out: Ki: primary assay inhibition of radioligand binding, D2.
In a further experiment the target is D3 (Homo sapiens, UniProt P35462). Put plainly: PDSP competitive binding assay. To be noted: 10 µM test article; read-out: Ki: primary assay inhibition of radioligand binding, D3.
Chain of D3 (P35462 whole entry): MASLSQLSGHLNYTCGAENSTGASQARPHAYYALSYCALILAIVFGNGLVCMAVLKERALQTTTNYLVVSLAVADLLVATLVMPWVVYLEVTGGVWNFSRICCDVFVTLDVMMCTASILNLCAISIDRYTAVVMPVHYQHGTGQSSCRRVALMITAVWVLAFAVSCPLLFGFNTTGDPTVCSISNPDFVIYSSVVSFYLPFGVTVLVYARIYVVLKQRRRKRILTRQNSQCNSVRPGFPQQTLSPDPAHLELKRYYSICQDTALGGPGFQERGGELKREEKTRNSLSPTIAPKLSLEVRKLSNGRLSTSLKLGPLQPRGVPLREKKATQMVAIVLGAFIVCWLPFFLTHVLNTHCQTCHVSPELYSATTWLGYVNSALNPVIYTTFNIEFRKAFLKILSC
The next experiment has as its target DOR (Homo sapiens, UniProt P41143). Put plainly: PDSP competitive binding assay. The settings on record: 10 µM test article; read-out: Ki: primary assay inhibition of radioligand binding, DOR.
The target in the next experiment is M1 (Homo sapiens, UniProt P11229). Kind of experiment: PDSP competitive binding assay. To be noted: 10 µM test article; read-out: Ki: primary assay inhibition of radioligand binding, M1.
Chain of M1 (P11229 whole entry): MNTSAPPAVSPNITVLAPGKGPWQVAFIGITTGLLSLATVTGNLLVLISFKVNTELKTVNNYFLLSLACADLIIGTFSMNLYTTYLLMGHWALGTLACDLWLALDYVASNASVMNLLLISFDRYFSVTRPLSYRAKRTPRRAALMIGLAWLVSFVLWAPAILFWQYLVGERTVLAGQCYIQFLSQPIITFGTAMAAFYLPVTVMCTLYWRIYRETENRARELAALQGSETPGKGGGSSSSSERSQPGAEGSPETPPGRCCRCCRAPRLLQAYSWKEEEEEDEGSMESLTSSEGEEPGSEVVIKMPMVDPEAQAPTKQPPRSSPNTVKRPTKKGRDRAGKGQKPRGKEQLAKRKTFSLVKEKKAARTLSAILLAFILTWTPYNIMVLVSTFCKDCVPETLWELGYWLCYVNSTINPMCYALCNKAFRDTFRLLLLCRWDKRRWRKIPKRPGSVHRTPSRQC
For another experiment, the system named is BiP in mouse DRG neurons. Kind of experiment: BiP immunocytochemistry in cultured DRG neurons. Format: cell-based. To be noted: ISRIB 200 nM. The method, then:
The ICC protocol was based on a previously published protocol ([76]). […] Cells were blocked with 10% normal goat serum (NGS) in PBS-triton X (0.1%). […] Antibodies were incubated at 4 °C overnight. […] It was washed with PBS twice. […] Images were analyzed using Olympus CellSens. […] Number of cells analyzed are detailed in SI Appendix, Tables S3 and S4. […]
T his BSA gradient containing the cells was centrifuged at 900g for 5 min at room temperatur e.
The pellet containing the cells was resuspended in Br ainPhys media (STEMCell #05790) containing 2% […]
1% Gluta Max (Gibco # 350 5 0061). Hu man DRG ne uron s were plated a nd grown o n glass coverslips coate d with po ly-D-lysine (Sigma #P7405). C ultured D RG neurons were plated for 24 hours before being treated.
Methylglyoxal (Sigma- Aldrich #M0252) and F EM- 1689 were serially diluted in media.
Mouse samples - DRG cultures […]
anesthesia and decapitated. […]
section above with minor differences.
Mouse DRG neurons were grown in
SAS-0132 and DKR-1677 were […]
dissolved in 100% DMSO to a final concentr ation of 200mM and stored at - 20 °C. and DKR-1677 were serially diluted in media. Untreated media was completely replaced with media containing each compound. […]
Slides were […]
incubated with 1:2 diluted hydrogen peroxide in distilled water for 10 min at r oom temper ature and washed twice in distilled water. The protease IV was applied to each section and incubated for 5 min at room temperature. Slides were w ashed twice in 1X PBS and RNA scope was performed immediately. A mixture of probes - Tmem97, Scn10a, and Fabp7 – was hybridized for 2 hours at 40 °C in a humidity control tray

Experiment [1] concerns MGO-induced mechanical hypersensitivity, wild-type mice. Put plainly: Methylglyoxal-induced mechanical hypersensitivity. Format: in vivo, mouse. To be noted: MGO 20 ng intraplantar; FEM-1689 20 mg/kg IV or ISRIB 2.5 mg/kg IP 24 h after MGO.
In another experiment the target is T6, Alpha1a (Homo sapiens, UniProt P35348).
T6 sequence (P35348 1-466): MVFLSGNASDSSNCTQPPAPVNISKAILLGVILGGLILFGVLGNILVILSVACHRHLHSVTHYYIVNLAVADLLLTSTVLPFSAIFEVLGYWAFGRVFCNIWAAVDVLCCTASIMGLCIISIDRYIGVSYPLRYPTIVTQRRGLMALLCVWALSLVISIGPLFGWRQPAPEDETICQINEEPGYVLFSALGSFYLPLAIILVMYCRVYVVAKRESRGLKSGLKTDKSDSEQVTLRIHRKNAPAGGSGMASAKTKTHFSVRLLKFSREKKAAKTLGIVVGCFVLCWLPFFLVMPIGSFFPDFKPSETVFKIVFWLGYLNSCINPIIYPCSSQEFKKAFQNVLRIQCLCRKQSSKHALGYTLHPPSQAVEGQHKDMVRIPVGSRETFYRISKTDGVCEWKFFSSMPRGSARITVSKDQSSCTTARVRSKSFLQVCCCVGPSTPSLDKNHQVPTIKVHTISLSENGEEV
Put plainly: PDSP competitive binding assay.

Another experiment addresses H4 (Homo sapiens, UniProt Q9H3N8). Put plainly: PDSP competitive binding assay.
The target in a further experiment is σ1R (Homo sapiens, UniProt Q99720). Kind of experiment: Competition binding with [3H]-(+)-pentazocine (NIMH PDSP).
Chain of σ1R (Q99720 whole entry): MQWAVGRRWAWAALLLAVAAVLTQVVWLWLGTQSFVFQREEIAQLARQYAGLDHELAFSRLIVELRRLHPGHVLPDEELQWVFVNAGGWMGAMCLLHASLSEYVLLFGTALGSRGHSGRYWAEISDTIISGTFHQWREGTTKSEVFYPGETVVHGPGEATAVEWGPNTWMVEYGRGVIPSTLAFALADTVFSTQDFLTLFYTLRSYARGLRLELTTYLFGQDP
Where [2] appears, read: dose response curve, given as LogKi with negative sign.

The structures appear in SMILES notation. “Also recorded” adds a separate entry of the source. Where two headings read alike, the source gives them in different places.

Chain of H4 (Q9H3N8 whole entry): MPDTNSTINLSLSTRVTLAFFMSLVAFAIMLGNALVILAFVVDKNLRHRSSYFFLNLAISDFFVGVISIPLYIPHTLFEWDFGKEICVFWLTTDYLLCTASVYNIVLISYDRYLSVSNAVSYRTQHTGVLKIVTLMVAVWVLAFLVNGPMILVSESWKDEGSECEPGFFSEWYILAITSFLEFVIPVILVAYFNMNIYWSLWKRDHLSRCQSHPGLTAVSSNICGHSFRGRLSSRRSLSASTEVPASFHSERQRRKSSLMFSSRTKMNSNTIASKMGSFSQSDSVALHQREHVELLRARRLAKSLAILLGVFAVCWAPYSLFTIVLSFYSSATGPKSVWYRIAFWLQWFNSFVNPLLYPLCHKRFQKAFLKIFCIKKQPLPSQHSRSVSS
T1 sequence (P28222 whole entry): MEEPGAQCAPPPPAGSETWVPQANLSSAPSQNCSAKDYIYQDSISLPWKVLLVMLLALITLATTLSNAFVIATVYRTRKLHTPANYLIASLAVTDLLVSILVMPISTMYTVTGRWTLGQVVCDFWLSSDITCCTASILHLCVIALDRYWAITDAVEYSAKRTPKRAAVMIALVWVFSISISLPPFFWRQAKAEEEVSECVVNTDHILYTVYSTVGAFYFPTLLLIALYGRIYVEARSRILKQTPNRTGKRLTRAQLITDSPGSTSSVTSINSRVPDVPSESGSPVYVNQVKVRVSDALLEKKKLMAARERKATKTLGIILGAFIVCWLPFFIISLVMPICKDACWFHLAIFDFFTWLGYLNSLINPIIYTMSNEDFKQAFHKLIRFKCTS
Chain of DOR (P41143 whole entry): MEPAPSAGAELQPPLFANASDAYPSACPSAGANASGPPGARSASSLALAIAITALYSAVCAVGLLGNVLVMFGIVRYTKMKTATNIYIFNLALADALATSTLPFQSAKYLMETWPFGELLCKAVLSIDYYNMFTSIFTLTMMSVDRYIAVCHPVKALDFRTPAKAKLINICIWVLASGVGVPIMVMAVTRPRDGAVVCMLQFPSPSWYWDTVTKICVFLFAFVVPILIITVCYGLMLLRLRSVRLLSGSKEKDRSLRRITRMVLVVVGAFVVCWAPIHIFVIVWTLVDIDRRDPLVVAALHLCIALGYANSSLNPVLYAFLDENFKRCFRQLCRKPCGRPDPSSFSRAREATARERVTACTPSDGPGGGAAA
T3 sequence (P18089 whole entry): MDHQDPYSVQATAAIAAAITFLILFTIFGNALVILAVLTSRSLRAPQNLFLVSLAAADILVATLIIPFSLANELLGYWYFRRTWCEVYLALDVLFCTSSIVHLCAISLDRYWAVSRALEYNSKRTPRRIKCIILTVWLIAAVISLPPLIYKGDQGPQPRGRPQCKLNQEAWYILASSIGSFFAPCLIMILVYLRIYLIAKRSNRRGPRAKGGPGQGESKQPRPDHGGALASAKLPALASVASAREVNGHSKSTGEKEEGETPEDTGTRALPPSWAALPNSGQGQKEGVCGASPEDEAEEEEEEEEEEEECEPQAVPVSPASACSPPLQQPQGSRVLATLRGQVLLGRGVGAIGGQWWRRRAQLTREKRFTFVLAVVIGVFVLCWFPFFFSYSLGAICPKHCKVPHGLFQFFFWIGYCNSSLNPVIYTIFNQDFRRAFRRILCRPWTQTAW
Chain of D2 (P14416 whole entry): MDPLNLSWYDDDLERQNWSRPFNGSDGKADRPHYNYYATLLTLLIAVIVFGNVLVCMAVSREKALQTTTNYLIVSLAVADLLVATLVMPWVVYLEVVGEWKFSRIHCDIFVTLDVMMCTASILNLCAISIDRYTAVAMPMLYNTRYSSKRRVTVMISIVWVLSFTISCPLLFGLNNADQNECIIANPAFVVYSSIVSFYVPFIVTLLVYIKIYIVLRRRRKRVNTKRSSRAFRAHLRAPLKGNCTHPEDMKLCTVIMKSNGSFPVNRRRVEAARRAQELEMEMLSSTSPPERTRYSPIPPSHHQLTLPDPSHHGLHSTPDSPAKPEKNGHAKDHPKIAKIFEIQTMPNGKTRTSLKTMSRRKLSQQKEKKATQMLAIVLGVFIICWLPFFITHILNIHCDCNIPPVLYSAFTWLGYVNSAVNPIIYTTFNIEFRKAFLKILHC
T5 sequence (P31645 whole entry): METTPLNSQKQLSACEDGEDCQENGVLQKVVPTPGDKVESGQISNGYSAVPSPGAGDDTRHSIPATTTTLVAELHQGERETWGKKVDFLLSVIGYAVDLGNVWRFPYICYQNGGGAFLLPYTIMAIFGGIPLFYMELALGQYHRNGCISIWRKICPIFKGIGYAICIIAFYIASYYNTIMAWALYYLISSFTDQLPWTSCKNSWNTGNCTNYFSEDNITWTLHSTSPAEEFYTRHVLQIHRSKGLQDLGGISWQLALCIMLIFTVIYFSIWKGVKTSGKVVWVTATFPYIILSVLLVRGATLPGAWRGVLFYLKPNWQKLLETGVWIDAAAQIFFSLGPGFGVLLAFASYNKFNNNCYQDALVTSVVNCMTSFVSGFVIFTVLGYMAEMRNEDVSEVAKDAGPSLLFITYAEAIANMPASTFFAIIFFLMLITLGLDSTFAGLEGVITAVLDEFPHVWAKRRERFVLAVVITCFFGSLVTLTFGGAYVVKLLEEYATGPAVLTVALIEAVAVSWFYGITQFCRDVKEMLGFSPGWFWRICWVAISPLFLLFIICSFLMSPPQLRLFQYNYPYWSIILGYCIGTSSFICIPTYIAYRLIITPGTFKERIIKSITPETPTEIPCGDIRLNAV

Usually inhibition stands for the share of the control response that was lost under treatment. As usually defined, the Ki is a dissociation constant, usually derived from enzyme kinetics or from competition with a known ligand. Take `OCCCN1CC[C@@H]2C[C@H]1c1cc(-c3ccc(C(F)(F)F)cc3)ccc12` [FEM-1689]: the inhibition at 10 µM at 5HT1B, on 5HT1D, on 5HT7, on Alpha2b, on PBR and at SERT was below 50% throughout. Also, the inhibition at 10 µM at D2, at D3, on DOR and on M1 was below 50% throughout. For the same compound, the values for the BiP levels entry with BiP in mouse DRG neurons (TMEM97KO mouse DRG neurons) and with BiP in mouse DRG neurons (wild-type mouse DRG neurons) were “una ffecte d; also recorded: did not reduce levels of BiP” and “reduced at a high concentration of 1000 nM”, respectively. For the same compound, the MGO-induced mechanical hypersensitivity result in experiment [1] is listed as “completely reversed MGO-induced mechanical hypersensitivity; also recorded: alleviated mechanical hypersensitivity for the duration of the pain state”. The “LogKi, Alpha1A” value at Alpha1a (setting [2]) is given as -5.70. The Ki was 1990 nM on Alpha1a (read-out: Alpha1a Ki, single determination); 1990 nM at Alpha1a (read-out: Ki, Alpha1A, dose response curve); 5510 nM at H4 (read-out: H4 Ki, single determination); 5510 nM on H4 (read-out: Ki, H4, dose response curve); 206 nM on σ1R; 167 ± 54 nM on σ1R (read-out: σ1R Ki, averages ± SD). Also, at H4 (setting [2]), the “LogKi, H4” value was -5.26. For the same compound, on σ1R (ratio of Ki), the “selectivity for σ2R/TMEM97 vs σ1R” value was 10 fold.
